Source: patent US10370380B2, “Octahydropyrrolo[3,4-c]pyrrole derivatives and uses thereof” (Sunshine Lake Pharma Co., Ltd., priority 2015, dated 2019)

Legend:
[1] = target: T1, humanized OX1 receptor (Homo sapiens, UniProt O43613); assay: Antagonistic effect on humanized OX1 receptor, calcium flux by fluorescence detection in CHO cells; assay type: cell-based
T1 construct: expressed in transfected cells; host or cells: CHO (Chinese hamster ovary) cells
T1 sequence (O43613 1-425): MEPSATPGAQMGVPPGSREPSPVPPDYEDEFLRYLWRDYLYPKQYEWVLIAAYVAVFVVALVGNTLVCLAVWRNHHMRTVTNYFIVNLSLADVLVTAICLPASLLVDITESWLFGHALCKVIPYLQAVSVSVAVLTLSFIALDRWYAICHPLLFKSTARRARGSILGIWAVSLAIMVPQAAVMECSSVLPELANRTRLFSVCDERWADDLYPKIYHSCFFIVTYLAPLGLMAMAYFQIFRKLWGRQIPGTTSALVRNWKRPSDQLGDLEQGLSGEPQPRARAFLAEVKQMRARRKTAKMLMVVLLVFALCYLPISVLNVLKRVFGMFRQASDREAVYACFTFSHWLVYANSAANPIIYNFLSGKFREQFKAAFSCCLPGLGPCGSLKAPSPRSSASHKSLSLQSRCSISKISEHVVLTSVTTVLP
Method: The capability of the compounds provided herein to antagonize humanized OX1 receptor expressed in Chinese hamster ovary (CHO) cells was evaluated by the influence of the compounds disclosed herein on calcium flux in cells induced by agonist detected by a method of fluorescence detection. The cells were suspended in DMEM culture medium (invitrogen), and then added to a microplate with an average density of 2×10^4 cells/well. The Hank's balanced salt solution (pH 7.4) containing fluorescent probes (Fluo4 NW, Invitrogen), probenecid (invitrogen), 20 mM hydroxyethyl piperazine acetic sulfuric acid (invitrogen) was added to the above microplate, and then incubated together with the cells at 37° C. for 60 min, further incubated at 22° C. for 15 min. The microplate was placed in a microplate reader (CellLux, PerkinElmer), and to which was added the test compound or reference antagonist or Hank's balanced salt solution, 5 min later, 3 nM of orexin A or Hank's balanced salt solution (as a blank contrast) was added. […] The experimental results were expressed as an inhibition percentage relative to a control group (the group with 3 nM of orexin A).
The standard reference antagonist is SB334867, and IC50 values were calculated by the dose-effect curve obtained from a series of concentrations of the experimental test.

[2] = Pharmacokinetic evaluation after intravenous or gavage administration to rats; assay type: in vivo, SD rats; details: SD, rat, in vivo
Method: (§1) The compounds disclosed herein were administered in form of a saline solution containing 5% DMSO, 5% Kolliphor HS 15, 2% (2% HCl) and 88% Saline, or a solution containing 10% DMSO, 10% Kolliphor HS 15 and 80% physiological saline to the subject animals. For intravenous administration, the animals were administered with a dose of 1 mg/kg or 2 mg/kg, and vein blood samples (0.3 mL) were collected at the time points of 0.083, 0.25, 0.5, 1.0, 2.0, 4.0, 6.0, 8.0 and 24 h after drug administration; plasma samples were collected by centrifugation of the vein blood samples at 3000 rpm or 4000 rpm for 10 minutes, and stored at −20° C. or −70° C. For gavage administration, the animals were administered with a dose of 2.5 mg/kg or 5 mg/kg, and vein blood samples (0.3 mL) were collected at the time points of 0.25, 0.5, 1.0, 2.0, 4.0, 6.0, 8.0 and 24 h after drug administration; plasma samples were collected by centrifugation at 3000 rpm or 4000 rpm for 10 minutes, and stored at −20° C. or −70° C. The positive control is suvorexant.
(§2) The above plasma samples were analyzed by the LC-MS/MS system.

[3] = Stability in human liver microsome; assay type: in vitro ADME; details: human, microsomes, pH 4
Method: A mixture of the compound of the invention and human liver microsome in 0.1 M potassium phosphate buffer (containing 1.0 mM EDTA, pH=4) was incubated at 37° C., the sample concentrations at different incubation times were measured, and then the half life of the compound was calculated by plotting “the relative amount of the compound” against “incubation time” by using software GraphPad Prism 5.01, and intrinsic clearance was calculated. The experiment system shown as table 5:
The sample was analyzed by LC/MS/MS (ESI […] source and waters xbridge C18 EB-A-1420 chromatographic column were adopted), the mobile phases were an aqueous solution with 2 mM ammonium formate and 0.1% formic acid (mobile phase A) and an methanol solution with 2 mM ammonium formate and 0.1% formic acid (mobile phase B), the flow rate was 0.4 mL/min; the column temperature was 40° C. The ratio of the sample peak area to the internal standard peak area was obtained through LC/MS/MS analysis, the content of the compound at 0 time point was as 100%, the relative content of the compound at each time point was calculated. The half life of the compound was calculated by plotting “the relative amount of the compound” against “incubation time”, and intrinsic clearance was calculated.
The positive control is suvorexant.

[4] = Pharmacokinetic evaluation after intravenous or gavage administration to dogs; assay type: in vivo, Beagle dogs; details: beagle, dog, in vivo
Method: as §1, §2

For `Cc1ccc(-n2nccn2)c(C(=O)N2CC3CN(c4nc5cc(Cl)ccc5o4)CC3C2)c1` (centres unmarked) [Example 1, (5-(5-chlorobenzo[d]oxazol-2-yl)hexahydropyrrolo[3,4-c]pyrrol-2(1H)-yl)(5-methyl-2-(2H-1,2,3-triazol-2-yl)phenyl)methanone], the IC50 [1] was 604 nM, the AUC(0-inf) ([2]; iv, 1 mg/kg) was 417 ng·h/mL and the AUC(0-t) ([2]; iv, 1 mg/kg) was 415 ng·h/mL. It also gave a Cmax ([2]; iv, 1 mg/kg) of 646 ng/mL, an MRT inf ([2]; iv, 1 mg/kg) of 0.638 h and a Vd ([2]; iv, 1 mg/kg) of 1.53 L/kg. For the same compound, the clearance ([2]; iv, 1 mg/kg) was 40 mL/min/kg, the half-life ([2]; iv, 1 mg/kg) was 0.676 h and the AUC(0-inf) ([2]; po, 2.5 mg/kg) was 659 ng·h/mL. For the same compound, the AUC(0-t) ([2]; po, 2.5 mg/kg) was 482 ng·h/mL, the Cmax ([2]; po, 2.5 mg/kg) was 181 ng/mL and the F ([2]; po, 2.5 mg/kg) was 50.1%. For the same compound, the MRT inf ([2]; po, 2.5 mg/kg) was 3.03 h, the half-life ([2]; po, 2.5 mg/kg) was 2.21 h and the CLint scaled at 1 μM [3] was 35.1 mL/min/kg. It also gave a half-life at 1 μM [3] of 0.825 h, an AUC(0-inf) ([4]; iv, 1 mg/kg) of 2710 ng·h/mL and an AUC(0-t) ([4]; iv, 1 mg/kg) of 2150 ng·h/mL. The Cmax ([4]; iv, 1 mg/kg) was 821 ng/mL, the MRT inf ([4]; iv, 1 mg/kg) was 4.97 h and the Vd ([4]; iv, 1 mg/kg) was 1.83 L/kg. The clearance ([4]; iv, 1 mg/kg) was 6.14 mL/min/kg, the half-life ([4]; iv, 1 mg/kg) was 3.73 h and the AUC(0-inf) ([4]; po, 5 mg/kg) was 16300 ng·h/mL. The AUC(0-t) ([4]; po, 5 mg/kg) was 15900 ng·h/mL, the Cmax ([4]; po, 5 mg/kg) was 1410 ng/mL and the F ([4]; po, 5 mg/kg) was 147.6%. For the same compound, the MRT inf ([4]; po, 5 mg/kg) was 6.84 h and the half-life ([4]; po, 5 mg/kg) was 4.41 h.
